As usually defined, the IC50 is the midpoint of a concentration-inhibition curve.

Assay type in all cases: biochemical
One assay addresses c-Mer (Homo sapiens (Human), UniProt Q12866). Nature of the assay: TAM Enzymatic Assay (HTRF), Mer. The following applies: 60 min, room temperature. Here is the method: The kinase assay buffer contained 50 mM HEPES, pH7.5, 10 mM MgCl2, 1 mM EGTA, 0.01% NP-40 and 2 mM DTT. 0.1 ul test compounds dissolved in DMSO were transferred from compound plates to white 384-well assay plates (Greiner […] plates). […] 4 ul enzyme solution (or assay buffer for the enzyme blank) was added to the appropriate wells in each plate, and then 4 ul/well substrate solution was added to initiate the reaction. The plate was protected from light and incubated at room temperature for 60 min. […] The plate was incubated for 1 h at room temperature, and HTRF (homogenous time resolved fluorescence) signal was measured on a PHERAstar FS plate reader (BMG labtech). Percentage of inhibition was calculated for each concentration and IC50 value was generated from curve fitting with GraphPad Prism software.
(In TR-FRET formats the signal depends on donor and acceptor labels being close together.)

In another assay the target is phosphor-Axl (Homo sapiens (Human), UniProt P30530). The experiment in a line: TAM Enzymatic Assay (HTRF), Axl. The following applies: recombinant autophosphorylated Axl, 60 min, room temperature.
Sequence of phosphor-Axl (P30530 26-894): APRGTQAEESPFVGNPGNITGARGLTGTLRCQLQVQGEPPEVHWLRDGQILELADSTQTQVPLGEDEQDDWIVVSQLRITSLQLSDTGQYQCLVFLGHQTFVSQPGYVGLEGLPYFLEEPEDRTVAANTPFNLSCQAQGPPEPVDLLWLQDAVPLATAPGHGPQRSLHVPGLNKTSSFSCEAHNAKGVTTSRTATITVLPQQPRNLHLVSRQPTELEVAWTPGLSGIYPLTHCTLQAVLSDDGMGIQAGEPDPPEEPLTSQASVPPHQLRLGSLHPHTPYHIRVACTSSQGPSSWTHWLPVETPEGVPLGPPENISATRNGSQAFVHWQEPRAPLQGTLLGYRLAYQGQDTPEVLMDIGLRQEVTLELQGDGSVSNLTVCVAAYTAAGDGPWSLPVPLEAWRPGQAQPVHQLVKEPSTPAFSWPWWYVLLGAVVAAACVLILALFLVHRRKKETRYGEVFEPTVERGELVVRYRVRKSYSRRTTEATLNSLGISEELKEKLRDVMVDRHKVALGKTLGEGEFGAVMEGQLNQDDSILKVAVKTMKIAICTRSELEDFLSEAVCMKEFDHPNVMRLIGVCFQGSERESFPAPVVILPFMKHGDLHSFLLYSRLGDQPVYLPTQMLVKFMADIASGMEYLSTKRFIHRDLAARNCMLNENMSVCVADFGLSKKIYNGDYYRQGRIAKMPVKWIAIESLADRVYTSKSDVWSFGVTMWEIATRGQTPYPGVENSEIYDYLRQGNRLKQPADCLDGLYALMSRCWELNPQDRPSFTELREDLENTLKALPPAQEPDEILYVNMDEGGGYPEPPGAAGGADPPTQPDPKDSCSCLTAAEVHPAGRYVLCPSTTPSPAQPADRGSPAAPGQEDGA
A further assay addresses Tyro3 (Homo sapiens (Human), UniProt Q06418). The experiment in a line: TAM Enzymatic Assay (HTRF), Tyro3. To be noted: Tyro3, 60 min, room temperature. A digest of the protocol: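 HTRF kinase assay in 50 mM HEPES pH 7.5, 10 mM MgCl2, 1 mM EGTA, 0.01% NP-40, 2 mM DTT; compound in DMSO pre-dispensed, enzyme added, reaction started with substrate, 60 min at room temperature in the dark.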

Sequence of Tyro3 (Q06418 41-890): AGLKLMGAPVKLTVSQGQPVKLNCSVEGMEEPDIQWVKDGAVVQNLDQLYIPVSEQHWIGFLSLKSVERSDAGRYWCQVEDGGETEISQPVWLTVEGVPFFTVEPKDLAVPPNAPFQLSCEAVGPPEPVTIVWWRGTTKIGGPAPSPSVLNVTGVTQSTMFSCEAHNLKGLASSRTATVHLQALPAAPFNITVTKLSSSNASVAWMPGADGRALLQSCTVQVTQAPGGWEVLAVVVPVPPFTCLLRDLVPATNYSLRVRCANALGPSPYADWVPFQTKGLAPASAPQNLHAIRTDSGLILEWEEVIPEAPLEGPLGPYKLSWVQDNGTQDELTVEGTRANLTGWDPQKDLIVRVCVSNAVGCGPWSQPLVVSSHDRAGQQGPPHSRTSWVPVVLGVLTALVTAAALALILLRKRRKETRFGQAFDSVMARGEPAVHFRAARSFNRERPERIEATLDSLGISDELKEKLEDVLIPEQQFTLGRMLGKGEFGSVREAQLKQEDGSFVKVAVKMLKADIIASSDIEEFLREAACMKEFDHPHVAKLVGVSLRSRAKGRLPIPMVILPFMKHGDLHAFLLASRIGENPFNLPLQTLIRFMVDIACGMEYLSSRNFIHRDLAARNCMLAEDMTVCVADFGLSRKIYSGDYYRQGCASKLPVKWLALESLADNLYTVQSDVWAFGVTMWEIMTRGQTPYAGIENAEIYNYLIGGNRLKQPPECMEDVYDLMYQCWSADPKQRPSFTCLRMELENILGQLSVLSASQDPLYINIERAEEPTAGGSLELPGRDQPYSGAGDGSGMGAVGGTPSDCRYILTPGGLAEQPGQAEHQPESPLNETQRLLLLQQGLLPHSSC
Sequence of c-Mer (Q12866 21-999): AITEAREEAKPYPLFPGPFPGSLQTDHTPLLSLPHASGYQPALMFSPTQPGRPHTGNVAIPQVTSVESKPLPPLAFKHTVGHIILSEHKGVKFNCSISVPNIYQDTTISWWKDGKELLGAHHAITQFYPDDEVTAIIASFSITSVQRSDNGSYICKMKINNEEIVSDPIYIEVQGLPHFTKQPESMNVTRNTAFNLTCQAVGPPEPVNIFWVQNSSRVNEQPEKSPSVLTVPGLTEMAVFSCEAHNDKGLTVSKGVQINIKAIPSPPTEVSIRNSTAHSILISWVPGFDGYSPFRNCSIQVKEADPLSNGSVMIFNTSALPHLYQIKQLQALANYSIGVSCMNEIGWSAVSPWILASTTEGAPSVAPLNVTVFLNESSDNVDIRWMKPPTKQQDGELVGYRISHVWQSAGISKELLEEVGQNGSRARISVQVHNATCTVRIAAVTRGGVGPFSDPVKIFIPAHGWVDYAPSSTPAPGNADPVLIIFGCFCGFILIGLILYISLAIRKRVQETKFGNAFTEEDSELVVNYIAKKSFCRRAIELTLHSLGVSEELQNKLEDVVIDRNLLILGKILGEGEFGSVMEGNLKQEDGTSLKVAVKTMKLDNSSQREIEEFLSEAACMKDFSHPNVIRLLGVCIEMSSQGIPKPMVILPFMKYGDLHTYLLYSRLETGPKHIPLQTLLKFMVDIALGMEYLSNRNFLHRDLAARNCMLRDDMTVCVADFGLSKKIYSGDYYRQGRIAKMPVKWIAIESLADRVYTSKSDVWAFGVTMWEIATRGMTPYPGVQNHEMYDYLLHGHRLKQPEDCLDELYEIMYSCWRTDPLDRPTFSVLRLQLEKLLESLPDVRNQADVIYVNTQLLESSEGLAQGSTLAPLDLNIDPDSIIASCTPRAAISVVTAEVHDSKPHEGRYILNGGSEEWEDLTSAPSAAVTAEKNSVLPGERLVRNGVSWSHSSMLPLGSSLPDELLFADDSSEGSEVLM

As for `Nc1ncnn2c(C3CCN(CCO)CC3)cc(-c3ccc(NC(=O)c4cccn(-c5ccccc5)c4=O)cc3)c12` [Example 52, N-(4-{4-Amino-7-[1-(2-hydroxyethyl)piperidin-4-yl]pyrrolo[2,1-f][1,2,4]triazin-5-yl}phenyl)-2-oxo-1-phenyl-1,2-dihydropyridine-3-carboxamide], the concentration for half-maximal inhibition (IC50) on c-Mer was not above 5 nM; at phosphor-Axl, not above 5 nM; at Tyro3, 10 to 100 nM.

As to `CCn1cc(C(=O)Nc2ccc(-c3cc(C4CCN(C(=O)N(C)C)CC4)n4ncnc(N)c34)cc2)c(=O)n(-c2ccc(F)cc2)c1=O` [Example 67, N-(4-(4-Amino-7-(1-(dimethylcarbamoyl)piperidin-4-yl)pyrrolo[1,2-f][1,2,4]triazin-5-yl)phenyl)-1-ethyl-3-(4-fluorophenyl)-2,4-dioxo-1,2,3,4-tetrahydropyrimidine-5-carboxamide], the results for the IC50 at c-Mer, at phosphor-Axl and on Tyro3 were not above 5 nM, not above 5 nM and more than 100 nM, respectively.

Take `CC(C)C(=O)N1CCC(c2cc(-c3ccc(NC(=O)c4cc(C#C[C@H](C)O)cn(-c5ccccc5)c4=O)cc3)c3c(N)ncnn23)CC1` [Example 120, (S)—N-(4-(4-Amino-7-(1-isobutyrylpiperidin-4-yl)pyrrolo[2,1-f][1,2,4]triazin-5-yl)phenyl)-5-(3-hydroxybut-1-yn-1-yl)-2-oxo-1-phenyl-1,2-dihydropyridine-3-carboxamide]: the IC50 is not above 5 nM against c-Mer, not above 5 nM on phosphor-Axl and more than 100 nM against Tyro3.

With `Cc1c(-c2ncccn2)cc(C(=O)Nc2ccc(-c3cc(C4CCN(C(=O)C(C)C)CC4)n4ncnc(N)c34)cc2)c(=O)n1-c1ccccc1` [Example 108, N-{4-[4-Amino-7-(1-isobutyrylpiperidin-4-yl)pyrrolo[2,1-f][1,2,4]triazin-5-yl]phenyl}-6-methyl-2-oxo-1-phenyl-5-pyrimidin-2-yl-1,2-dihydropyridine-3-carboxamide], the concentration for half-maximal inhibition (IC50) is not above 5 nM at c-Mer, not above 5 nM at phosphor-Axl and 10 to 100 nM against Tyro3.

As to `CC(C)n1cc(C(=O)Nc2ccc(-c3cc(C4CCN(C)CC4)n4ncnc(N)c34)cc2)c(=O)n(-c2ccccc2)c1=O` [Example 64, N-(4-(4-Amino-7-(1-methylpiperidin-4-yl)pyrrolo[1,2-f][1,2,4]triazin-5-yl)phenyl)-1-isopropyl-2,4-dioxo-3-phenyl-1,2,3,4-tetrahydropyrimidine-5-carboxamide], the half-inhibitory concentration (IC50) against c-Mer was not above 5 nM; at phosphor-Axl, not above 5 nM; at Tyro3, 10 to 100 nM.

`Nc1ncnn2c(C3CCOCC3)cc(-c3ccc(NC(=O)c4cccn(-c5ccc(F)cc5)c4=O)cc3)c12` [Example 14, N-{4-[4-Amino-7-(tetrahydro-2H-pyran-4-yl)pyrrolo[2,1-f][1,2,4]triazin-5-yl]phenyl}-1-(4-fluorophenyl)-2-oxo-1,2-dihydropyridine-3-carboxamide]: the half-maximal inhibitory concentration (IC50) is not above 5 nM at c-Mer, not above 5 nM on phosphor-Axl and 10 to 100 nM on Tyro3.

Regarding `CC(C)C(=O)N1CCC(c2cc(-c3ccc(NC(=O)c4cn(C(C)C)c(=O)n(-c5cccnc5)c4=O)cc3)c3c(N)ncnn23)CC1` [Example 78, N-(4-(4-Amino-7-(1-isobutyrylpiperidin-4-yl)pyrrolo[1,2-f][1,2,4]triazin-5-yl)phenyl)-1-isopropyl-2,4-dioxo-3-(pyridin-3-yl)-1,2,3,4-tetrahydropyrimidine-5-carboxamide], the figures for the IC50 on c-Mer, on phosphor-Axl and at Tyro3 were not above 5 nM, not above 5 nM and 10 to 100 nM, respectively.

With `COC(=O)N1CCC(c2cc(-c3ccc(NC(=O)c4cccn(-c5ccc(F)cc5)c4=O)cc3F)c3c(N)ncnn23)CC1` [Example 39, Methyl 4-{4-amino-5-[2-fluoro-4-({[1-(4-fluorophenyl)-2-oxo-1,2-dihydropyridin-3-yl]carbonyl}amino)phenyl]pyrrolo[2,1-f][1,2,4]triazin-7-yl}piperidine-1-carboxylate], the IC50 against c-Mer is not above 5 nM; on phosphor-Axl, not above 5 nM; on Tyro3, 10 to 100 nM.

For `Nc1ncnn2c(C3CCOCC3)cc(-c3ccc(NC(=O)c4cccn(-c5ccc(F)cc5)c4=O)cc3F)c12` [Example 16, N-{4-[4-Amino-7-(tetrahydro-2H-pyran-4-yl)pyrrolo[2,1-f][1,2,4]triazin-5-yl]-3-fluorophenyl}-1-(4-fluorophenyl)-2-oxo-1,2-dihydropyridine-3-carboxamide], the IC50 against c-Mer was not above 5 nM; at phosphor-Axl it was not above 5 nM; on Tyro3 it was 10 to 100 nM.

For the compound `CC(C)C(=O)N1CCC(c2cc(-c3ccc(NC(=O)c4cnc(-c5cccnc5)n(-c5ccccc5)c4=O)cc3)c3c(N)ncnn23)CC1` [Example 116, N-{4-[4-Amino-7-(1-isobutyrylpiperidin-4-yl)pyrrolo[2,1-f][1,2,4]triazin-5-yl]phenyl}-6-oxo-1-phenyl-2-pyridin-3-yl-1,6-dihydropyrimidine-5-carboxamide], the half-maximal inhibitory concentration (IC50) at c-Mer is not above 5 nM; on phosphor-Axl it was not above 5 nM; on Tyro3 it was 10 to 100 nM.

For the compound `CN(C)C(=O)N1CCC(c2cc(-c3ccc(NC(=O)c4cccn(-c5ccccc5)c4=O)cc3)c3c(N)ncnn23)CC1` [Example 44, N-[4-(4-Amino-7-{1-[(dimethylamino)carbonyl]piperidin-4-yl}pyrrolo[2,1-f][1,2,4]triazin-5-yl)phenyl]-2-oxo-1-phenyl-1,2-dihydropyridine-3-carboxamide], the values for the IC50 at c-Mer, on phosphor-Axl and against Tyro3 were not above 5 nM, not above 5 nM and more than 100 nM, respectively.

As to `CCc1cc(-c2ccc(NC(=O)c3cccn(Cc4ccccc4)c3=O)cc2)c2c(N)ncnn12` [Example 5, N-[4-(4-Amino-7-ethylpyrrolo[2,1-f][1,2,4]triazin-5-yl)phenyl]-1-benzyl-2-oxo-1,2-dihydropyridine-3-carboxamide], the IC50 at c-Mer, at phosphor-Axl and on Tyro3 was more than 100 nM in each case.

As to `CC(C)n1cc(C(=O)Nc2ccc(-c3cc(C4CCC(N(C)C)CC4)n4ncnc(N)c34)cc2)c(=O)n(-c2ccccc2)c1=O` (centres unmarked) [Example 93, N-(4-(4-Amino-7-(4-(dimethylamino)cyclohexyl)pyrrolo[2,1-f][1,2,4]triazin-5-yl)phenyl)-1-isopropyl-2,4-dioxo-3-phenyl-1,2,3,4-tetrahydropyrimidine-5-carboxamide], the 50% inhibitory concentration (IC50) on c-Mer, at phosphor-Axl and at Tyro3 was not above 5 nM throughout.

Consider `Cc1c(-c2ncco2)cc(C(=O)Nc2ccc(-c3cc(C4CCN(C(=O)C(C)C)CC4)n4ncnc(N)c34)cc2)c(=O)n1-c1ccccn1` [Example 126, N-(4-(4-Amino-7-(1-isobutyrylpiperidin-4-yl)pyrrolo[2,1-f][1,2,4]triazin-5-yl)phenyl)-6-methyl-5-(oxazol-2-yl)-2-oxo-2H-[1,2′-bipyridine]-3-carboxamide], for which the IC50 at c-Mer is not above 5 nM; at phosphor-Axl, not above 5 nM; on Tyro3, more than 100 nM.

As to `CN(C)C(=O)N1CCC(c2cc(-c3ccc(NC(=O)c4cccn(-c5ccc(F)cc5)c4=O)cc3)c3c(N)ncnn23)CC1` [Example 45, N-[4-(4-Amino-7-{1-[(dimethylamino)carbonyl]piperidin-4-yl}pyrrolo[2,1-f][1,2,4]triazin-5-yl)phenyl]-1-(4-fluorophenyl)-2-oxo-1,2-dihydropyridine-3-carboxamide], the half-maximal inhibitory concentration (IC50) against c-Mer is not above 5 nM; at phosphor-Axl it was not above 5 nM; at Tyro3 it was 10 to 100 nM.

With `CCc1cc(-c2ccc(NC(=O)c3cccn([C@H](C)CO)c3=O)cc2)c2c(N)ncnn12` [Example 3, N-[4-(4-Amino-7-ethylpyrrolo[2,1-f][1,2,4]triazin-5-yl)phenyl]-1-[(1R)-2-hydroxy-1-methylethyl]-2-oxo-1,2-dihydropyridine-3-carboxamide], the 50% inhibitory concentration (IC50) on c-Mer, on phosphor-Axl and on Tyro3 was more than 100 nM each time.

On to `CCn1cc(C(=O)Nc2ccc(-c3cc(C4CCN(C(=O)N5CCOCC5)CC4)n4ncnc(N)c34)cc2)c(=O)n(-c2ccc(F)cc2)c1=O` [Example 68, N-(4-(4-Amino-7-(1-(morpholine-4-carbonyl)piperidin-4-yl)pyrrolo[1,2-f][1,2,4]triazin-5-yl)phenyl)-1-ethyl-3-(4-fluorophenyl)-2,4-dioxo-1,2,3,4-tetrahydropyrimidine-5-carboxamide], for which the IC50 is not above 5 nM against c-Mer, not above 5 nM at phosphor-Axl and more than 100 nM against Tyro3.

In the case of `CCc1cc(-c2ccc(NC(=O)c3cccn([C@H](CC)CO)c3=O)cc2)c2c(N)ncnn12` [Example 4, N-[4-(4-Amino-7-ethylpyrrolo[2,1-f][1,2,4]triazin-5-yl)phenyl]-1-[(1R)-1-(hydroxymethyl)propyl]-2-oxo-1,2-dihydropyridine-3-carboxamide], the IC50 against c-Mer, on phosphor-Axl and at Tyro3 was more than 100 nM throughout.

Take `Nc1ncnn2c1c(-c1ccc(NC(=O)c3cccn(-c4ccc(F)cc4)c3=O)cc1)cc2[C@H]1CC[C@@H](O)CC1` [Example 17, N-{4-[4-Amino-7-(cis-4-hydroxycyclohexyl)pyrrolo[2,1-f][1,2,4]triazin-5-yl]phenyl}-1-(4-fluorophenyl)-2-oxo-1,2-dihydropyridine-3-carboxamide]: the IC50 on c-Mer and at phosphor-Axl was not above 5 nM throughout.

For the origin of these results see patent US9981975B2, “Pyrrolotriazine compounds as tam inhibitors” (Incyte Corporation, priority 2016, dated 2018).
